Measurements as given in paper PMC3495945, “Org 214007-0: A Novel Non-Steroidal Selective Glucocorticoid Receptor Modulator with Full Anti-Inflammatory Properties and Improved Therapeutic Index” (PLoS ONE, 2012).

Key:
[1] = test system: murine collagen-induced arthritis (CIA) model; conditions: for disease score (arthritis score): oral, once daily 3 weeks, therapeutic
Description: At day 0 mice were immunized at the base of the tail with 100 μg bovine type II collagen (UMC Nijmegen, The Netherlands) in Complete Freund's Adjuvant (CFA, Difco) enriched with 2 mg/ml Mycobacterium tuberculosis H37RA (Difco). At day 21 mice were boosted by an i.p. injection of 100 μg bovine type II collagen dissolved in saline. After disease onset, mice with an arthritis score ranging from 0.25 to 1.25 were divided into matched groups (n = 12). […] The clinical severity of arthritis (arthritis score) was graded and scored as described [51]. To assess the effects of treatments, the area under the curve (AUC) of arthritis score (subtracting baseline AUC of arthritis score on day 0) was used. One day after the final treatment animals were sacrificed and the knee and ankle joints were imaged using a Faxitron X-ray, Modl MX-20 digital imaging system and analysed using Specimen (Version 2.0.1). The bone destruction was scored on a scale of 0–5 as described previously [51]. The cumulative scores of 2 joints (right ankle and knee) were used as radiological scores. From H&H-stained sections, articular cartilage destruction and inflammatory infiltrate in the right knee joint were scored on a scale of 0–3. The whole study was carried out in a blinded fashion. Statistical analysis was performed using one-way ANOVA.

[2] = molecular target: T1, His-GR-LBD (F602S mutated) (Homo sapiens, UniProt P04150, F602S); test: Co-factor-peptide (TIF2-3) recruitment assay; assay type: biochemical; conditions: for Emax: read-out: percentage maximal efficacy (%CV), recruitment of TIF2-3 peptide
T1 construct: E. coli produced His-GR-LBD (F602S mutated) at 10 nM; made in house; host or cells: E. coli
T1 sequence (P04150 524-758 F602S limits assumed): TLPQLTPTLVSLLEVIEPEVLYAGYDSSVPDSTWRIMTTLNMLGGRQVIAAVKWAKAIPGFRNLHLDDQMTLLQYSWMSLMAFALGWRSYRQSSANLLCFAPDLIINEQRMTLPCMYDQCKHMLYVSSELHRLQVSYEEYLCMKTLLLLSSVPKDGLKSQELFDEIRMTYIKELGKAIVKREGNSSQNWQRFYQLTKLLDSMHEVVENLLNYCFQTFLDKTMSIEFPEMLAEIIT
Description: Hereafter, peptide, representing Transcriptional Intermediary Factor 2 – LXXLL motif 3 (TIF2-3) at 100 nM (final concentration), streptavidin-APC (8 nM, final concentration) and anti-His-Eu (1.25 nM final concentration) were added to a total volume of 50 μL/well and incubation at 4°C was continued for another 20 hours. Fluorescence was measured using Tecan Infinite M1000 and data were analysed by GraphPad Prism.

[3] = Mouse fasting blood glucose; assay type: in vivo; conditions: oral daily 28 days; prednisolone 0.5 or 10 mg/kg/day, Org 214007-0 0.17 or 1.5 mg/kg/day; 9 hours fasting
Description: Eighteen hours after the last oral treatment and 9 hours after start of starvation, blood samples were taken from the tail vein and directly used for glucose measurements using “One touch Ultra” glucose meter from Lifescan EuroFlash (Lifescan Benelux Beerse, Belgium). The mouse MIDA study was performed as described previously by van Dijk et al., [52]. […] On the third day, mice were cannulated in the right jugular vein. After 7 days of treatment, mice were placed in small Plexiglas cages, which allowed collection of blood samples frequently in freely moving mice. […] During the experiment blood glucose was measured and blood spots for GCMS measurements were collected from tail tips just before the start of the infusion and at hourly intervals. […] Glucose and paracetamol-glucuronic acid (Par-GLcUa) were extracted from blood spot and urine filter papers, respectively, derivatised, and measured by GC-MS, essentially as described previously, [52]. […] From isotope dilution and infusion rates, the flux rates of the following metabolic pathways could be calculated: 1) de novo synthesis of G6P, 2) glucokinase, 3) glucose-6-phosphatase, 4) glycogenolysis, and 5) glycogen synthesis. […]

[4] = test system: primary human whole blood cells; test: Human whole blood LPS-induced cytokine release; assay type: cell-based; conditions: for IC50: Whole blood cell, LPS, 24 hours, read-out: IC50, LPS-induced TNFα release; for Max. eff., LPS-induced TNFα repression: prednisolone = 100%
Source text: Hereafter, supernatant was carefully collected and tested at the most optimal dilution (predetermined by a titration study on control samples) in a human TNFα-specific ELISA (for the LPS stimulated samples) or in a human IL-5-specific or human G-CSF-specific ELISA (for the PMA/anti-CD28 stimulated samples) (Duoset, R&D systems USA).

Cc1nnsc1C(=O)N[C@H]1CCN2c3ccc(C#N)cc3[C@@H](C)c3ccccc3[C@@H]2C1 [Org 214007-0]
disease symptoms ([1]; 1.5 mg/kg/day oral): total suppression
bone damage by X-ray on knees and paws ([1]; 0.5 and 1.5 mg/kg/day, end of study): significant reduction
potency relative to prednisolone ([1]; CIA, oral once daily): about 3 fold
disease score (arthritis score) [1]: dose-dependent reduction
histopathology of knee joints: inflammatory infiltrates, cartilage destruction, bone apposition ([1]; two highest doses (0.5 and 1.5 mg/kg/day)): significant reduction
EC50 ([2]; 0.1 μM peptide, read-out: EC50 (%CV), recruitment of TIF2-3 peptide): 0.01 µM
Emax [2]: 67%
fasting blood glucose levels vs vehicle [3]: not affected
IC50 [4]: 0.05 µM
Max. eff., LPS-induced TNFα repression [4]: 68 (±8.7) %

C[C@]12C=CC(=O)C=C1CC[C@@H]1[C@@H]2[C@@H](O)C[C@@]2(C)[C@H]1CC[C@]2(O)C(=O)CO [prednisolone, reference compound]
disease score (arthritis score) [1]: dose-dependent reduction
Emax [2]: 100%
fasting blood glucose levels vs vehicle [3]: significantly elevated
IC50 [4]: 0.027 µM
Max. eff., LPS-induced TNFα repression [4]: 100%
